{
  "source": "ChEMBL document CHEMBL3616388",
  "about": "“Discovery of novel nonpeptide allosteric inhibitors interrupting the interaction of CDK2/cyclin A3 by virtual screening and bioassays” (Bioorg Med Chem Lett, 2015)",
  "key": {"[1]": {"molecular_target": "T1, Cyclin-dependent kinase 2 (Homo sapiens, UniProt P24941)", "assay": "Binding affinity to N-terminal His-tagged recombinant human CDK2 (1 to 298 amino acid residues) expressed in Escherichia coli BL21 assessed as inhibition of interaction with cyclin A3 by measuring HHASPRK phosphorylation at 100 uM by ADP-Glo Max assay relative to control"}, "[2]": {"tested_on": "A549", "assay": "Cell cycle arrest in human A549 cells assessed as accumulation at S phase at 200 uM after 72 hrs by propidium iodide staining-based flow cytometric analysis (reference value: 11.53%)", "format": "functional"}, "[3]": {"molecular_target": "T1, Cyclin-dependent kinase 2", "assay": "Binding affinity to N-terminal His-tagged recombinant human CDK2 (1 to 298 amino acid residues) expressed in Escherichia coli BL21 assessed as inhibition of interaction with cyclin A3 by measuring 250 uM HHASPRK phosphorylation by ADP-Glo Max assay in presence of 375 uM ATP"}, "[4]": {"molecular_target": "T1, Cyclin-dependent kinase 2", "assay": "Binding affinity to N-terminal His-tagged recombinant human CDK2 (1 to 298 amino acid residues) expressed in Escherichia coli BL21 assessed as inhibition of interaction with cyclin A3 by measuring 2.5 mM HHASPRK phosphorylation by ADP-Glo Max assay in presence of 75 uM ATP"}, "[5]": {"tested_on": "A549", "assay": "Cell cycle arrest in human A549 cells assessed as accumulation at S phase at 50 uM after 72 hrs by propidium iodide staining-based flow cytometric analysis (reference value: 11.53%)", "format": "functional"}, "[6]": {"molecular_target": "T1, Cyclin-dependent kinase 2", "assay": "Binding affinity to N-terminal His-tagged recombinant human CDK2 (1 to 298 amino acid residues) expressed in Escherichia coli BL21 assessed as inhibition of interaction with cyclin A3 by measuring 1.25 mM HHASPRK phosphorylation by ADP-Glo Max assay in presence of 75 uM ATP"}, "[7]": {"tested_on": "A549", "assay": "Cell cycle arrest in human A549 cells assessed as accumulation at S phase at 25 uM after 72 hrs by propidium iodide staining-based flow cytometric analysis (reference value: 11.53%)", "format": "functional"}, "[8]": {"tested_on": "A549", "assay": "Cell cycle arrest in human A549 cells assessed as accumulation at G0/G1 phase at 50 uM after 72 hrs by propidium iodide staining-based flow cytometric analysis (reference value: 68.68%)", "format": "functional"}, "[9]": {"tested_on": "HepG2", "assay": "Cytotoxicity against human HepG2 cells assessed as cell viability after 72 hrs by MTS assay", "format": "functional, cell-based"}, "[10]": {"molecular_target": "T1, Cyclin-dependent kinase 2", "assay": "Binding affinity to N-terminal His-tagged recombinant human CDK2 (1 to 298 amino acid residues) expressed in Escherichia coli BL21 assessed as inhibition of interaction with cyclin A3 by measuring 250 uM HHASPRK phosphorylation by ADP-Glo Max assay in presence of 750 uM ATP"}, "[11]": {"tested_on": "A549", "assay": "Cell cycle arrest in human A549 cells assessed as accumulation at G0/G1 phase at 200 uM after 72 hrs by propidium iodide staining-based flow cytometric analysis (reference value: 68.68%)", "format": "functional"}, "[12]": {"molecular_target": "Cyclin-dependent kinase 2 (Homo sapiens, UniProt P24941, R150A)", "assay": "Binding affinity to human CDK2 R150A mutant expressed in Escherichia coli BL21 assessed as inhibition of interaction with cyclin A3 by measuring HHASPRK phosphorylation by ADP-Glo Max assay"}, "[13]": {"molecular_target": "T1, Cyclin-dependent kinase 2", "assay": "Binding affinity to N-terminal His-tagged recombinant human CDK2 (1 to 298 amino acid residues) expressed in Escherichia coli BL21 assessed as inhibition of interaction with cyclin A3 by measuring 250 uM HHASPRK phosphorylation by ADP-Glo Max assay in presence of 75 uM ATP"}, "[14]": {"tested_on": "A549", "assay": "Cell cycle arrest in human A549 cells assessed as accumulation at G0/G1 phase at 25 uM after 72 hrs by propidium iodide staining-based flow cytometric analysis (reference value: 68.68%)", "format": "functional"}, "[15]": {"molecular_target": "T1, Cyclin-dependent kinase 2", "assay": "Binding affinity to GST-tagged recombinant human CDK2 (1 to 298 amino acid residues) expressed in Escherichia coli BL21 assessed as inhibition of interaction with His-tagged cyclin A3 preincubated overnight with GST-tagged protein followed by His-tagged cyclin A3 addition by GST pull down assay"}, "[16]": {"tested_on": "A549", "assay": "Cell cycle arrest in human A549 cells assessed as accumulation at G2/M phase at 200 uM after 72 hrs by propidium iodide staining-based flow cytometric analysis (reference value: 19.79%)", "format": "functional"}, "[17]": {"tested_on": "A549", "assay": "Cytotoxicity against human A549 cells assessed as cell viability after 72 hrs by MTS assay", "format": "functional, cell-based"}, "[18]": {"tested_on": "A549", "assay": "Cell cycle arrest in human A549 cells assessed as accumulation at G2/M phase at 50 uM after 72 hrs by propidium iodide staining-based flow cytometric analysis (reference value: 19.79%)", "format": "functional"}, "[19]": {"molecular_target": "Cyclin-dependent kinase 2 (Homo sapiens, UniProt P24941, Y180A)", "assay": "Binding affinity to human CDK2 Y180A mutant expressed in Escherichia coli BL21 assessed as inhibition of interaction with cyclin A3 by measuring HHASPRK phosphorylation by ADP-Glo Max assay"}, "[20]": {"tested_on": "A549", "assay": "Cell cycle arrest in human A549 cells assessed as accumulation at G0/G1 phase at 10 uM after 72 hrs by propidium iodide staining-based flow cytometric analysis (reference value: 68.68%)", "format": "functional"}, "[21]": {"tested_on": "A549", "assay": "Cell cycle arrest in human A549 cells assessed as accumulation at G2/M phase at 10 uM after 72 hrs by propidium iodide staining-based flow cytometric analysis (reference value: 19.79%)", "format": "functional"}, "[22]": {"tested_on": "MDA-MB-231", "assay": "Cytotoxicity against human MDA-MB-231 cells assessed as cell viability after 72 hrs by MTS assay", "format": "functional, cell-based"}, "[23]": {"tested_on": "A549", "assay": "Cell cycle arrest in human A549 cells assessed as accumulation at G2/M phase at 25 uM after 72 hrs by propidium iodide staining-based flow cytometric analysis (reference value: 19.79%)", "format": "functional"}, "[24]": {"tested_on": "A549", "assay": "Cell cycle arrest in human A549 cells assessed as accumulation at S phase at 10 uM after 72 hrs by propidium iodide staining-based flow cytometric analysis (reference value: 11.53%)", "format": "functional"}},
  "data": [
    {"compound": "Cn1c(=O)[nH]c(=O)c2c1nc(N/N=C1/C(=O)Nc3ccccc31)n2CC(O)COc1ccccc1", "note": "(centres undefined)", "values": [
      {"measurement": "inhibition", "setting": "[1]", "value": "< 5", "unit": "%"}
    ]},
    {"compound": "CSc1ccc(/C=N/c2cc([N+](=O)[O-])ccc2O)cc1", "values": [
      {"measurement": "Activity", "setting": "[2]", "value": 41.3, "unit": "%"},
      {"measurement": "IC50", "setting": "[3]", "value": 78.3, "unit": "µM"},
      {"measurement": "IC50", "setting": "[4]", "value": 69.8, "unit": "µM"},
      {"measurement": "Activity", "setting": "[5]", "value": 26.21, "unit": "%"},
      {"measurement": "IC50", "setting": "[6]", "value": 58.1, "unit": "µM"},
      {"measurement": "Activity", "setting": "[7]", "value": 21.91, "unit": "%"},
      {"measurement": "Activity", "setting": "[8]", "value": 60.8, "unit": "%"},
      {"measurement": "Activity", "setting": "[9]", "value": "Dose-dependent effect"},
      {"measurement": "IC50", "setting": "[10]", "value": 55.1, "unit": "µM"},
      {"measurement": "Activity", "setting": "[11]", "value": 43.49, "unit": "%"},
      {"measurement": "IC50", "setting": "[12]", "value": 885, "unit": "µM"},
      {"measurement": "IC50", "setting": "[13]", "value": 52.1, "unit": "µM"},
      {"measurement": "Activity", "setting": "[14]", "value": 65.26, "unit": "%"},
      {"measurement": "Activity", "setting": "[15]", "value": "Dose-dependent effect"},
      {"measurement": "Activity", "setting": "[16]", "value": 15.2, "unit": "%"},
      {"measurement": "Activity", "setting": "[17]", "value": "Dose-dependent effect"},
      {"measurement": "Activity", "setting": "[18]", "value": 12.99, "unit": "%"},
      {"measurement": "IC50", "setting": "[19]", "value": 151, "unit": "µM"},
      {"measurement": "Activity", "setting": "[20]", "value": 66.03, "unit": "%"},
      {"measurement": "Activity", "setting": "[21]", "value": 18.76, "unit": "%"},
      {"measurement": "Activity", "setting": "[22]", "value": "Dose-dependent effect"},
      {"measurement": "inhibition", "setting": "[1]", "value": 65.5, "unit": "%"},
      {"measurement": "Activity", "setting": "[23]", "value": 12.83, "unit": "%"},
      {"measurement": "Activity", "setting": "[24]", "value": 15.21, "unit": "%"}
    ]},
    {"compound": "CCOC(=O)C(Cc1ccc(OC)c([N+](=O)[O-])c1)NC(=O)CCC(=O)Nc1ccc(S(N)(=O)=O)cc1", "note": "(centres undefined)", "values": [
      {"measurement": "inhibition", "setting": "[1]", "value": "< 5", "unit": "%"}
    ]},
    {"compound": "CN1C(=O)c2cccc3c(S(=O)(=O)NCCC(=O)O)ccc1c23", "values": [
      {"measurement": "inhibition", "setting": "[1]", "value": 5.54, "unit": "%"}
    ]},
    {"compound": "CCOc1cc(C(=O)Nc2ccc(S(=O)(=O)Nc3nc(C)cc(C)n3)cc2)cc(OCC)c1OCC", "values": [
      {"measurement": "IC50", "setting": "[13]", "value": 105, "unit": "µM"},
      {"measurement": "inhibition", "setting": "[1]", "value": 62.3, "unit": "%"}
    ]},
    {"compound": "Cc1cc(C)nc(NS(=O)(=O)c2ccc(NC(=O)CCCCC(=O)Nc3ccc(S(=O)(=O)Nc4nc(C)cc(C)n4)cc3)cc2)n1", "values": [
      {"measurement": "inhibition", "setting": "[1]", "value": 38, "unit": "%"}
    ]},
    {"compound": "O=C(CSc1nc2ccc(NC(=O)CSCC(=O)Nc3ccc4ccccc4c3)cc2s1)NCCOc1ccccc1", "values": [
      {"measurement": "inhibition", "setting": "[1]", "value": "< 5", "unit": "%"}
    ]},
    {"compound": "COc1ccccc1OCCOc1ccccc1/C=c1\\sc2n(c1=O)C(c1ccccc1)C(C(=O)Nc1ccccc1)=C(C)N=2", "note": "(centres undefined)", "values": [
      {"measurement": "inhibition", "setting": "[1]", "value": "< 5", "unit": "%"}
    ]},
    {"compound": "Cc1[nH]c2ccccc2c1/C=N/c1ccccc1C(=O)O", "values": [
      {"measurement": "inhibition", "setting": "[1]", "value": "< 5", "unit": "%"}
    ]},
    {"compound": "Cc1ccccc1C(=O)N(Cc1ccc(C(F)(F)F)cc1)c1ccc(CC(=O)NCc2ccc(F)cc2)cc1", "values": [
      {"measurement": "inhibition", "setting": "[1]", "value": 37.5, "unit": "%"}
    ]},
    {"compound": "C/C(Cc1ccccc1)=N\\Nc1nnc2c(n1)[nH]c1ccccc12", "values": [
      {"measurement": "inhibition", "setting": "[1]", "value": 35.2, "unit": "%"}
    ]},
    {"compound": "CC(=O)C1=C(O)C(=O)N(CO)C1c1ccccc1", "note": "(centres undefined)", "values": [
      {"measurement": "inhibition", "setting": "[1]", "value": "< 5", "unit": "%"}
    ]},
    {"compound": "Cc1ccc(S(=O)(=O)Nc2ccc(C(=O)N3N=C(c4c(-c5ccccc5)c5cc(Br)ccc5[nH]c4=O)CC3c3ccccc3)cc2)cc1", "note": "(centres undefined)", "values": [
      {"measurement": "inhibition", "setting": "[1]", "value": "< 5", "unit": "%"}
    ]},
    {"compound": "CCN(C(=O)CCNC(=O)Cn1cnc2ccccc2c1=O)c1cccc(C(F)(F)F)c1", "values": [
      {"measurement": "inhibition", "setting": "[1]", "value": 8.39, "unit": "%"}
    ]},
    {"compound": "OC(CN1CCN(CC(O)Cn2c3ccc(Br)cc3c3cc(Br)cc(Br)c32)CC1)Cn1c2ccccc2c2ccccc21", "note": "(centres undefined)", "values": [
      {"measurement": "inhibition", "setting": "[1]", "value": 31, "unit": "%"}
    ]}
  ]
}
